Structures can show the parent of a compound that is named as a salt. *1 amine or outer side, *2 acyl side, *3 side chain or, on linkers, in order; H or OH if unused. Where a SMILES comes first, the peptide text is derived from it. Bridges are numbered along the chain shown (N, C = ends). Roman numbers before positions name the chains, in order. [ ]: non-standard residue; d: D form. Actinocin(9to1) = Cc1c2oc3c(C)ccc(C(=O)[*:1])c3nc-2c(C(=O)[*:2])c(N)c1=O; NMeV = CN[C@H](C(=O)O)C(C)C; Sar = CNCC(=O)O
Experiments:
[1] = test system: resistant sublines of murine leukemia cells; settings: Tsuruo et al., Cancer Res.; cited from earlier work
[2] = test system: Drug Resistant KB V-1 human KB epidermoid carcinoma cells; assay: In vitro cytotoxicity of potentiating agents, MTT absorbance (drug resistant KB); settings: KB V-1, 96 h, Act D alone = 1.00
Experimental: (§1) After 48 hours of incubation at 37° C., the media is changed and cells are treated with actinomycin D at 0.1 nM (3-1) or 20 nM (V-1). The test potentiating agent is introduced to one-half the untreated cultures and one-half the Act D treated cultures at 1 and 10 μM. After 96 hours of additional incubation at 37° C., 0.5 mg/ml MTT dye is added, the cells are incubated for three hours, after which the cells are dissolved in DMSO, and the absorbance is then read at 570 nm.

[3] = as above; settings: human, kb v-1 cells
Experimental: as §1

[4] = test system: Wildtype AUXB1 Chinese hamster ovary cells; assay: In vitro cytotoxicity of potentiating agents, MTT absorbance (wildtype CHO); settings: AUXB1, 96 h, Act D alone = 1.00
[5] = as above; settings: chinese hamster, auxb1 cells
[6] = test system: Wildtype KB 3-1 human KB epidermoid carcinoma cells; assay: In vitro cytotoxicity of potentiating agents, MTT absorbance (wildtype KB); settings: KB 3-1, 96 h, Act D alone = 1.00
Experimental: as §1

[7] = as above; settings: human, kb 3-1 cells
Experimental: as §1

[8] = test system: Drug Resistant C5S32 Chinese hamster ovary cells; assay: In vitro cytotoxicity of potentiating agents, MTT absorbance (drug resistant CHO); settings: for Normalized absorbance (surviving cells), potentiating agent + ACT D, fraction of Act D alone: C5S32, 96 h, Act D alone = 1.00
[9] = as above; settings: chinese hamster, c5s32 cells
[10] = test system: Chinese hamster ovary cells (AuxBl and C5S32); assay: Reduction in cell number by Act D alone, MTT absorbance; settings: Cricetulus griseus, CHO, read-out: reduction in cell number below the value of completely untreated cultures

## COC(=O)C1=C(C)NC(C)=C(C(=O)OCCN(C)Cc2ccccc2)C1c1cccc([N+](=O)[O-])c1 (centres unmarked) [nicardipine]
[1]
  enhance the activity of antitumor agents against resistant sublines of murine leukemia cells: enhance the activity of antitumor agents against resistant sublines of murine leukemia cells

## COc1ccc(CN(CCN(C)C)c2cccc(/C=C/C(=O)O)n2)cc1 [(A), (E)-3-(6-(N-(2-Dimethylaminoethyl)-4-methoxybenzyl-amino)-2-pyridyl)acrylic acid]
[2]; 1 μM + Act D 20 nM
  Normalized absorbance (surviving cells), potentiating agent + ACT D, fraction of Act D alone: 0.85
[2]; 10 μM + Act D 20 nM
  Normalized absorbance (surviving cells), potentiating agent + ACT D, fraction of Act D alone: 0.80
[3]
  viability at 96 h, 1 µM: 70%
  viability at 96 h, 10 µM: 73%
[4]; 1 μM + Act D 0.01 μM
  Normalized absorbance (surviving cells), potentiating agent + ACT D, fraction of Act D alone: 0.64
[4]; 10 μM + Act D 0.01 μM
  Normalized absorbance (surviving cells), potentiating agent + ACT D, fraction of Act D alone: 0.05
[5]
  viability at 96 h, 1 µM: 100%
  viability at 96 h, 10 µM: 41%
[6]; 1 μM + Act D 0.1 nM
  Normalized absorbance (surviving cells), potentiating agent + ACT D, fraction of Act D alone: 0.96
[6]; 10 μM + Act D 0.1 nM
  Normalized absorbance (surviving cells), potentiating agent + ACT D, fraction of Act D alone: 0.97
[7]
  viability at 96 h, 1 µM: 100%
  viability at 96 h, 10 µM: 99%
[8]; 1 μM + Act D 0.5 μM
  Normalized absorbance (surviving cells), potentiating agent + ACT D, fraction of Act D alone: 1.00
[8]; 10 μM + Act D 0.5 μM
  Normalized absorbance (surviving cells), potentiating agent + ACT D, fraction of Act D alone: 0.13
[9]
  viability at 96 h, 1 µM: 68%
  viability at 96 h, 10 µM: 28%

## COc1ccc(CN(CCN(C)C)c2ccc(Br)cn2)cc1 [(B), N-(5-Bromo-2-pyridyl)-N-(4-methoxybenzyl)-N',N'-dimethyl-1,2-ethanediaminehydrobromide]
[2]; 1 μM + Act D 20 nM
  Normalized absorbance (surviving cells), potentiating agent + ACT D, fraction of Act D alone: 0.85
[2]; 10 μM + Act D 20 nM
  Normalized absorbance (surviving cells), potentiating agent + ACT D, fraction of Act D alone: 0.80
[3]
  viability at 96 h, 1 µM: 77%
  viability at 96 h, 10 µM: 56%
[4]; 1 μM + Act D 0.01 μM
  Normalized absorbance (surviving cells), potentiating agent + ACT D, fraction of Act D alone: 1.00
[4]; 10 μM + Act D 0.01 μM
  Normalized absorbance (surviving cells), potentiating agent + ACT D, fraction of Act D alone: 1.00
[5]
  viability at 96 h, 1 µM: 100%
  viability at 96 h, 10 µM: 100%
[6]; 1 μM + Act D 0.1 nM
  Normalized absorbance (surviving cells), potentiating agent + ACT D, fraction of Act D alone: 0.89
[6]; 10 μM + Act D 0.1 nM
  Normalized absorbance (surviving cells), potentiating agent + ACT D, fraction of Act D alone: 0.92
[7]
  viability at 96 h, 1 µM: 97%
  viability at 96 h, 10 µM: 86%
[8]; 1 μM + Act D 0.5 μM
  Normalized absorbance (surviving cells), potentiating agent + ACT D, fraction of Act D alone: 1.00
[8]; 10 μM + Act D 0.5 μM
  Normalized absorbance (surviving cells), potentiating agent + ACT D, fraction of Act D alone: 0.56
[9]
  viability at 96 h, 1 µM: 100%
  viability at 96 h, 10 µM: 91%

## COc1ccc([C@@H]2Sc3ccccc3N(CCN(C)C)C(=O)[C@@H]2OC(C)=O)cc1 [diltiazem]
[1]
  enhance the activity of antitumor agents against resistant sublines of murine leukemia cells: enhance the activity of antitumor agents against resistant sublines of murine leukemia cells

## Cc1c2oc3c(C)ccc(C(=O)N[C@@H]4C(=O)N[C@H](C(C)C)C(=O)N5CCC[C@H]5C(=O)N(C)CC(=O)N(C)[C@@H](C(C)C)C(=O)O[C@@H]4C)c3nc-2c(C(=O)N[C@@H]2C(=O)N[C@H](C(C)C)C(=O)N3CCC[C@H]3C(=O)N(C)CC(=O)N(C)[C@@H](C(C)C)C(=O)O[C@@H]2C)c(N)c1=O [Actinomycin D, reference compound] (I: T[dV]P[Sar][NMeV] / II: T[dV]P[Sar][NMeV]; ester I:1-I:C, II:1-II:C; linker I:N-II:N via Actinocin(9to1))
[10]
  inhibition at 0.01 µM: 10 to 20%
[8]; C5S32 vs parental AuxBI
  resistance of C5S32 cells to Actinomycin D compared to the parental AuxBI cell line: about 200 fold

## CN1CCN(CCCN2c3ccccc3Sc3ccc(C(F)(F)F)cc32)CC1 [trifluoperazine]
[1]
  enhance the activity of antitumor agents against resistant sublines of murine leukemia cells: enhance the activity of antitumor agents against resistant sublines of murine leukemia cells

## CCN(CC)CCn1c(=O)c(Cc2ccc(OC)cc2)nc2ccccc21 [caroverine]
[1]
  enhance the activity of antitumor agents against resistant sublines of murine leukemia cells: enhance the activity of antitumor agents against resistant sublines of murine leukemia cells

## CN(C)CCCN1c2ccccc2CCc2ccc(Cl)cc21 [clomipramine]
[1]
  enhance the activity of antitumor agents against resistant sublines of murine leukemia cells: enhance the activity of antitumor agents against resistant sublines of murine leukemia cells

## C=C[C@H]1C[N@@]2CC[C@H]1C[C@@H]2[C@@H](O)c1ccnc2ccc(OC)cc12 [quinidine]
[1]
  enhance the activity of antitumor agents against resistant sublines of murine leukemia cells: enhance the activity of antitumor agents against resistant sublines of murine leukemia cells

## COc1ccc(CCN(C)CCCC(C#N)(c2ccc(OC)c(OC)c2)C(C)C)cc1OC (centres unmarked) [Verapamil]
[1]
  enhance the activity of antitumor agents against resistant sublines of murine leukemia cells: enhance the activity of antitumor agents against resistant sublines of murine leukemia cells

— patent US5124339A, “Agents for potentiating the effects of antitumor agents and combating multiple drug resistance” (Burroughs Wellcome Company, priority 1989, dated 1992)
